Measured values reported in patent publication US6468979B1, “Erythromycin derivatives with antibiotic activity” (Zambon Group S.p.A., priority 1998, dated 2002).
Converted amounts (≈) assume the structure as drawn.

How the values were obtained:
S. aureus 929 = assay: In vitro antibacterial activity (MIC), broth dilution micromethod; assay type: cell-based, Staphylococcus aureus; settings: erythromycin-resistant strain; MHB, 37° C., 18 hours
Method: (§1) The minimum inhibitory concentrations (MIC), with respect to Gram-positive bacteria (erythromycin-sensitive and -resistant strains) and Gram-negative bacteria, were determined by means of the broth-scaler dilution micromethod in twin series [National Committee for Clinical Laboratory Standards, 1990; Methods for dilution antimicrobial susceptibility tests for bacteria that grow aerobically; Approved standards M7-A2-NCCLS, Villanova, Pa.], using Mueller Hinton Broth (MHB) as culture medium.
(§2) Azithromycin [The Merck Index, XIIth Edition, No. 946) was used as reference macrolide.
(§3) The MIC values, expressed in μg/ml, were determined after incubating the microplates at 37° C. for 18 hours, by evaluating the lowest concentration of antibiotic capable of inhibiting bacterial growth.

S. aureus 77 = assay: as above; assay type: cell-based, Staphylococcus aureus; settings: erythromycin-resistant strain; MHB, 37° C., 18 hours
Method: as §1, §2, §3

S. specie 916 = assay: as above; assay type: cell-based, Staphylococcus spp.; settings: erythromycin-resistant (inducible) strain; MHB, 37° C., 18 hours
Method: as §1, §2, §3

S. epidermis 60 = assay: as above; assay type: cell-based, Staphylococcus spp.; settings: erythromycin-resistant (inducible) strain; MHB, 37° C., 18 hours
Method: as §1, §2, §3

S. coag. Neg. 845 = assay: as above; assay type: cell-based, Staphylococcus spp.; settings: erythromycin-resistant strain; MHB, 37° C., 18 hours
Method: as §1, §2, §3

S. haemolyticus 161 = assay: as above; assay type: cell-based, Staphylococcus haemolyticus; settings: erythromycin-resistant strain; MHB, 37° C., 18 hours
Method: as §1, §2, §3

S. pneumoniae 1047 = assay: as above; assay type: cell-based, Streptococcus pneumoniae; settings: erythromycin-resistant strain; MHB with 5% horse serum, 37° C., 18 hours
Method: as §1
(§4) In the case of Streptococcus pneumoniae, the medium was supplemented with 5% horse serum.
as §2, §3

S. pneumoniae 1035 = assay: as above; assay type: cell-based, Streptococcus pneumoniae; settings: erythromycin-resistant strain; MHB with 5% horse serum, 37° C., 18 hours
Method: as §1, §4, §2, §3

S. pneumoniae 1051 = assay: as above; assay type: cell-based, Streptococcus pneumoniae; settings: erythromycin-resistant strain; MHB with 5% horse serum, 37° C., 18 hours
Method: as §1, §4, §2, §3

[1] = tested on: Streptococcus pyogenes C203; assay: In vivo therapeutic efficacy in experimental pulmonary infection in mice; settings: CD1 mice, death observed for 7 days, probit analysis; for PD50 1 hour after infection: single oral dose 1 hour after intranasal infection; for PD50 24 hours before infection: single oral dose 24 hours before intranasal infection
Method: The therapeutic efficacy, expressed as the 50% protective dose (PD50), of the compounds of formula (I) was evaluated in the experimental pulmonary infection induced in mice by Streptococcus pyogenes C203.
Charles River albino mice (strain CD1) weighing 23-25 g were used, kept in groups of 6 to a cage and fed normally with a standard diet and water ad libitum.
A suspension of Streptococcus pyogenes C203 (equal to about 10^8 CFU) in tryptone broth (0.05 ml) was administered intranasally to each mouse, anaesthetized with a mixture of ethyl ether and chloroform.
The compounds of formula I and the clarithromycin reference compounds were administered orally in a single dose, as a 0.5% suspension Methocel® 1 hour after the infection and 24 hours before the infection.
Observation of the death of the mice was continued for 7 days after the infection.
The PD50, expressed as μmol/kg, was calculated by means of probit analysis.

Compound	MIC S. aureus 929 (S. aureus 929) [µg/mL]	MIC S. aureus 77 (S. aureus 77) [µg/mL]	MIC S. specie 916* (S. specie 916) [µg/mL]	MIC S. epidermis 60* (S. epidermis 60) [µg/mL]	MIC S. coag. Neg. 845 (S. coag. Neg. 845) [µg/mL]	MIC S. haemolyticus 161 (S. haemolyticus 161) [µg/mL]	MIC S. pneumoniae 1047 (S. pneumoniae 1047) [µg/mL]	MIC S. pneumoniae 1035 (S. pneumoniae 1035) [µg/mL]	MIC S. pneumoniae 1051 (S. pneumoniae 1051) [µg/mL]	PD50 1 hour after infection [1] [µmol/kg]	PD50 24 hours before infection [1] [µmol/kg]
CC[C@H]1OC(=O)[C@H](C)[C@@H](O[C@H]2C[C@@](C)(OC)[C@@H](O)[C@H](C)O2)[C@H](C)[C@@H](O[C@@H]2O[C@H](C)C[C@H](N(C)C)[C@H]2O)[C@](C)(O)C[C@@H](C)/C(=N\OCCNCCCCCCNCc2csc(-n3ccnc3)n2)[C@H](C)[C@@H](O)[C@]1(C)O [Compound 5, Erythromycin A (E)-9-[O-[2-[6-[(2-imidazol-1-ylthiazol-4-ylmethyl)amino]hexylamino]ethyl]oxime]]	>64	>64	4 (≈ 3.79 µM)	1 (≈ 0.948 µM)	>64	>64	4 (≈ 3.79 µM)	4 (≈ 3.79 µM)	2 (≈ 1.9 µM)		
CC[C@H]1OC(=O)[C@H](C)[C@@H](O[C@H]2C[C@@](C)(OC)[C@@H](O)[C@H](C)O2)[C@H](C)[C@@H](O[C@@H]2O[C@H](C)C[C@H](N(C)C)[C@H]2O)[C@](C)(O)C[C@@H](C)/C(=N\OCCN(C)CCCCCCNCc2csc(-n3ccnc3)n2)[C@H](C)[C@@H](O)[C@]1(C)O [Compound 6]	>64	>64	4 (≈ 3.74 µM)	2 (≈ 1.87 µM)	>64	>64	1 (≈ 0.936 µM)	0.5 (≈ 0.468 µM)	0.25 (≈ 0.234 µM)	10.1	16.0
CC[C@H]1OC(=O)[C@H](C)[C@@H](O[C@H]2C[C@@](C)(OC)[C@@H](O)[C@H](C)O2)[C@H](C)[C@@H](O[C@@H]2O[C@H](C)C[C@H](N(C)C)[C@H]2O)[C@](C)(O)C[C@@H](C)/C(=N\OCCNCCCCCCNCc2csc(-n3cncn3)n2)[C@H](C)[C@@H](O)[C@]1(C)O [Compound 8, Erythromycin A (E)-9-[O-[2-[6-[(2-[1,2,4]triazol-1-ylthiazol-4-ylmethyl)amino]hexylamino]ethyl]oxime]]	>64	>64	8 (≈ 7.58 µM)	2 (≈ 1.9 µM)	>64	>64	2 (≈ 1.9 µM)	4 (≈ 3.79 µM)	1 (≈ 0.948 µM)		
CC[C@H]1OC(=O)[C@H](C)[C@@H](O[C@H]2C[C@@](C)(OC)[C@@H](O)[C@H](C)O2)[C@H](C)[C@@H](O[C@@H]2O[C@H](C)C[C@H](N(C)C)[C@H]2O)[C@](C)(O)C[C@@H](C)/C(=N\OCCNCCCCCCNCc2csc(-n3cccn3)n2)[C@H](C)[C@@H](O)[C@]1(C)O [Compound 10, Erythromycin A (E)-9-[O-[2-[6-[(2-pyrazol-1-ylthiazol-4-ylmethyl)amino]hexylamino]ethyl]oxime]]	32 (≈ 30.3 µM)	>64	4 (≈ 3.79 µM)	1 (≈ 0.948 µM)	32 (≈ 30.3 µM)	64 (≈ 60.7 µM)	0.5 (≈ 0.474 µM)	1 (≈ 0.948 µM)	0.25 (≈ 0.237 µM)		
CC[C@H]1OC(=O)[C@H](C)[C@@H](O[C@H]2C[C@@](C)(OC)[C@@H](O)[C@H](C)O2)[C@H](C)[C@@H](O[C@@H]2O[C@H](C)C[C@H](N(C)C)[C@H]2O)[C@](C)(O)C[C@@H](C)/C(=N\OCCN(C)CCCCCCNCc2csc(-n3cccn3)n2)[C@H](C)[C@@H](O)[C@]1(C)O [Compound 11, Erythromycin A (E)-9-[O-[2-[methyl[6-[(2-pyrazol-1-ylthiazol-4-ylmethyl]amino]hexyl]amino]ethyl]oxime]]	>64	>64	8 (≈ 7.49 µM)	2 (≈ 1.87 µM)	>64	>64	0.5 (≈ 0.468 µM)	0.0625 (≈ 0.0585 µM)	0.125 (≈ 0.117 µM)	11.2	25.4
Erythromycin A (E)-9-[O-[2-[6-[(2-[1,2,3]thiadiazol-5-ylthiazol-4-ylmethyl]amino]hexylamino]ethyl]oxime] [Compound 3]	64	>64	0.5	1	64	64				4.5	25.4
